The assay relates to 883617-216-R-J1-PDC tumor spheroids, viability. Nature of the assay: Anticancer human tumor 883617-216-R-J1-PDC patient-derived bladder carcinoma cell line growth inhibition [PI3K]. As to conditions: spheroids with HUVEC and MSC; for viability, T/C: stronger effect = lower value. The method in brief: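 Agents were dosed from a top concentration near clinical Cmax (otherwise 10 microM) in half-log decrements, alone or combined with PI3K inhibitors. The spheroids contain tumor cells plus endothelial (HUVEC) and MSC stroma; viability is measured.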

Setting [1] is: curve of first compound, second compound 0.0316 µM.
[2] abbreviates: curve of first compound, second compound 0.1 µM.
Setting [3] is: curve of first compound, second compound 0.316 µM.
Setting [4] is: curve of first compound, second compound 1 µM.
The mark [5] stands for this setting: second compound 0.0316 µM, first compound 0.000316 µM.
[6] abbreviates: second compound 0.0316 µM, first compound 0.001 µM.
Setting [7] is: second compound 0.0316 µM, first compound 0.00316 µM.
[8] abbreviates: second compound 0.0316 µM, first compound 0.01 µM.
Where [9] appears, read: second compound 0.0316 µM, first compound 0.0316 µM.
Setting [10] is: second compound 0.0316 µM, first compound 0.1 µM.
The mark [11] stands for this setting: second compound 0.1 µM, first compound 0.000316 µM.
Where [12] appears, read: second compound 0.1 µM, first compound 0.001 µM.
Setting [13] is: second compound 0.1 µM, first compound 0.00316 µM.
Setting [14] is: second compound 0.1 µM, first compound 0.01 µM.
Where [15] appears, read: second compound 0.1 µM, first compound 0.0316 µM.
[16] abbreviates: second compound 0.1 µM, first compound 0.1 µM.
Where [17] appears, read: second compound 0.316 µM, first compound 0.000316 µM.
Where [18] appears, read: second compound 0.316 µM, first compound 0.001 µM.
[19] abbreviates: second compound 0.316 µM, first compound 0.00316 µM.
The mark [20] stands for this setting: second compound 0.316 µM, first compound 0.01 µM.
[21] abbreviates: second compound 0.316 µM, first compound 0.0316 µM.
[22] abbreviates: second compound 0.316 µM, first compound 0.1 µM.
Where [23] appears, read: second compound 1 µM, first compound 0.000316 µM.
The mark [24] stands for this setting: second compound 1 µM, first compound 0.001 µM.
Where [25] appears, read: second compound 1 µM, first compound 0.00316 µM.
[26] abbreviates: second compound 1 µM, first compound 0.01 µM.
Where [27] appears, read: second compound 1 µM, first compound 0.0316 µM.
[28] abbreviates: second compound 1 µM, first compound 0.1 µM.

Where “and” joins values, the source holds several entries; their conditions need not be identical. Equal values may be shown once.
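Further: spheroids exposed to agents for 7 days before the viability read.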

One may read the IC50 as the concentration that gives 50% inhibition. Usually viability, T/C stands for the result in the treated group divided by that in the control group, in per cent. As to `CC(C)n1nc(-c2ccc3oc(N)nc3c2)c2c(N)ncnc21` + CC(Nc1ncnc2nc[nH]c12)c1cc2cccc(Cl)c2c(=O)n1-c1ccccc1, the IC50 is, setting by setting: under setting [1], 32.1 nM; under setting [2], 34.2 nM; under setting [3], 30 nM; under setting [4], 21.3 nM; (curve of first compound, second compound 3.16 µM) 13.5 nM; (curve of first compound, second compound 10 µM) 0.321 nM. Also, the viability, T/C by setting is: under setting [5], 91%; under setting [6], 75.2%; under setting [7], 76.8%; under setting [8], 82%; under setting [9], 50.4%; under setting [10], 18.4%. Further, the viability, T/C was 95.3% under setting [11]; 93% under setting [12]; 87.6% under setting [13]; 69.7% under setting [14]; 54.5% under setting [15]; 17.4% under setting [16]. The viability, T/C reads like this: under setting [17], 87.4%; under setting [18], 92.5%; under setting [19], 81.7%; under setting [20], 72.8%; under setting [21], 49%; under setting [22], 19.9%. Besides, the viability, T/C by setting is: under setting [23], 91.2%; under setting [24], 77.1%; under setting [25], 80.2%; under setting [26], 68.3%; under setting [27], 40.2%; under setting [28], 19.6%. Moreover, the viability, T/C (second compound 3.16 µM, first compound 0.000316 µM) was 83.6%; the viability, T/C (second compound 3.16 µM, first compound 0.001 µM) was 58.9%; the viability, T/C (second compound 3.16 µM, first compound 0.00316 µM) was 63.2%; the viability, T/C (second compound 3.16 µM, first compound 0.01 µM) is 60.6%; the viability, T/C (second compound 3.16 µM, first compound 0.0316 µM) was 38.1%; the viability, T/C (second compound 3.16 µM, first compound 0.1 µM) was 17.7%. Also, the viability, T/C was 48.3% (second compound 10 µM, first compound 0.000316 µM); 50.7% (second compound 10 µM, first compound 0.001 µM); 45.8% (second compound 10 µM, first compound 0.00316 µM); 36.3% (second compound 10 µM, first compound 0.01 µM); 26.8% (second compound 10 µM, first compound 0.0316 µM); 13% (second compound 10 µM, first compound 0.1 µM).

`Cn1ncc(Cl)c1-c1cc(C(=O)NC(CN)Cc2cccc(F)c2)sc1Cl` (centres undefined): the viability, T/C reads like this: (compound 0.0316 µM) 98.2% [middle of 4 runs]; (compound 0.1 µM) 85% [middle of 4 runs]; (compound 0.316 µM) 63.8% [middle of 4 runs]; (compound 1 µM) 34.5% [middle of 4 runs]; (compound 3.16 µM) 13.8% [middle of 4 runs]. Moreover, the IC50 (curve of compound) is 571 nM [middle of 4 runs].

In the case of `CC1(C)CCC(CN2CCN(c3ccc(C(=O)NS(=O)(=O)c4ccc(NCC5CCOCC5)c([N+](=O)[O-])c4)c(Oc4cnc5[nH]ccc5c4)c3)CC2)=C(c2ccc(Cl)cc2)C1`, the viability, T/C reads like this: (compound 0.0316 µM) 105% [middle of 4 runs]; (compound 1 µM) 94.3% [middle of 4 runs]; (compound 3.16 µM) 92.8% [middle of 4 runs]. The IC50 (curve of compound) is > 10000 nM and 5360 nM and 5660 nM.

Take `CC(=O)c1c(C)c2cnc(Nc3ccc(N4CCNCC4)cn3)nc2n(C2CCCC2)c1=O` + CC(Nc1ccc2c(c1)OCCn1cc(N3C(=O)OCC3C(F)F)nc1-2)C(N)=O: the IC50 runs as follows: (curve of first compound, second compound 0.00316 µM) 74.3 nM; (curve of first compound, second compound 0.01 µM) 54.3 nM; under setting [1], 35.9 nM; under setting [2], 0.515 nM; under setting [3], under 0.316 nM; under setting [4], under 0.316 nM. In addition, the viability, T/C reads like this: (second compound 0.00316 µM, first compound 0.000316 µM) 99.1%; (second compound 0.00316 µM, first compound 0.001 µM) 97.3%; (second compound 0.00316 µM, first compound 0.00316 µM) 86.7%; (second compound 0.00316 µM, first compound 0.01 µM) 84.1%; (second compound 0.00316 µM, first compound 0.0316 µM) 67%; (second compound 0.00316 µM, first compound 0.1 µM) 43.6%. Further, the viability, T/C by setting is: (second compound 0.01 µM, first compound 0.000316 µM) 78.1%; (second compound 0.01 µM, first compound 0.001 µM) 85.7%; (second compound 0.01 µM, first compound 0.00316 µM) 82%; (second compound 0.01 µM, first compound 0.01 µM) 78.7%; (second compound 0.01 µM, first compound 0.0316 µM) 55.9%; (second compound 0.01 µM, first compound 0.1 µM) 43.4%. Further, the viability, T/C runs as follows: under setting [5], 74.2%; under setting [6], 78.9%; under setting [7], 67.5%; under setting [8], 69.8%; under setting [9], 51.2%; under setting [10], 34.9%. Further, the viability, T/C by setting is: under setting [11], 52%; under setting [12], 47.8%; under setting [13], 42.8%; under setting [14], 42.6%; under setting [15], 32.2%; under setting [16], 26.1%. Also, the viability, T/C runs as follows: under setting [17], 33.9%; under setting [18], 26.1%; under setting [19], 26.7%; under setting [20], 26.3%; under setting [21], 18.3%; under setting [22], 15.8%. The viability, T/C is 18.6% under setting [23]; 15.8% under setting [24]; 14.3% under setting [25]; 14.8% under setting [26]; 15.5% under setting [27]; 10.1% under setting [28].

Source of the values: PubChem BioAssay AID1963973 (Molecular Pharmacology Branch, DTP, NCI, 2024).
